{"source": "patent US11286242B2", "about": "(priority 2018, dated 2022)", "data": [{"test_system": "Pyricularia oryzae", "assay": "microbe, parasite or virus in culture", "type": "cell-based", "conditions": "168 h, read-out: control compared to the untreated check", "units": {"inhibition of growth at 300 ppm": "%"}, "values": [{"smiles": "COc1cccc(S(C)(=O)=Nc2ccc(-c3noc(C(F)(F)F)n3)cc2)c1", "note": "(centres unmarked) [Compound 106, (3-methoxyphenyl)(methyl)((4-(5-(trifluoromethyl)-1,2,4-oxadiazol-3-yl)phenyl)imino)-λ^6-sulfanone]", "inhibition of growth at 300 ppm": "> 70"}, {"smiles": "Cc1cccc(S(C)(=O)=Nc2cccc(-c3noc(C(F)(F)F)n3)c2)c1", "note": "(centres unmarked) [Compound 114, methyl(m-tolyl)((3-(5-(trifluoromethyl)-1,2,4-oxadiazol-3-yl)phenyl)imino)-λ^6-sulfanone]", "inhibition of growth at 300 ppm": "> 70"}, {"smiles": "CS(=O)(=Nc1cccc(-c2noc(C(F)(F)F)n2)c1)c1ccccc1", "note": "(centres unmarked) [Compound 122, methyl(phenyl)((3-(5-(trifluoromethyl)-1,2,4-oxadiazol-3-yl)phenyl)imino)-λ^6-sulfanone]", "inhibition of growth at 300 ppm": "> 70"}, {"smiles": "CS(=O)(=Nc1ccc(-c2noc(C(F)(F)F)n2)nc1)c1ccc(C(F)(F)F)cc1", "note": "(centres unmarked) [Compound 124, methyl((6-(5-(trifluoromethyl)-1,2,4-oxadiazol-3-yl)pyridin-3-yl)imino)(4-(trifluoromethyl)phenyl)-λ^6-sulfanone]", "inhibition of growth at 300 ppm": "> 70"}, {"smiles": "COc1cccc(S(C)(=O)=Nc2ccc(-c3noc(C(F)(F)F)n3)nc2)c1", "note": "(centres unmarked) [Compound 127, (3-methoxyphenyl)(methyl)((6-(5-(trifluoromethyl)-1,2,4-oxadiazol-3-yl)pyridin-3-yl)imino)-λ^6-sulfanone]", "inhibition of growth at 300 ppm": "> 70"}, {"smiles": "Cc1ccc(S(C)(=O)=Nc2ccc(-c3noc(C(F)(F)F)n3)cc2)cc1", "note": "(centres unmarked) [Compound 130, methyl(p-tolyl)((4-(5-(trifluoromethyl)-1,2,4-oxadiazol-3-yl)phenyl)imino)-λ^6-sulfanone]", "inhibition of growth at 300 ppm": "> 70"}, {"smiles": "CS(=O)(=NCc1cccc(-c2noc(C(F)(F)F)n2)c1)c1ccc(F)c(F)c1", "note": "(centres unmarked) [Compound 141, (3,4-difluorophenyl)(methyl)((3-(5-(trifluoromethyl)-1,2,4-oxadiazol-3-yl)benzyl)imino)-sulfanone]", "inhibition of growth at 300 ppm": "> 70"}, {"smiles": "CS(=O)(=NCc1cccc(-c2noc(C(F)(F)F)n2)c1)c1ccc(Cl)cc1", "note": "(centres unmarked) [Compound 143, (4-chlorophenyl)(methyl)((3-(5-(trifluoromethyl)-1,2,4-oxadiazol-3-yl)benzyl)imino)-λ^6-sulfanone]", "inhibition of growth at 300 ppm": "> 70"}, {"smiles": "CS(=O)(=NCc1cccc(-c2noc(C(F)(F)F)n2)c1)c1nccs1", "note": "(centres unmarked) [Compound 144, methyl(thiazol-2-yl)((3-(5-(trifluoromethyl)-1,2,4-oxadiazol-3-yl)benzyl)imino)-λ^6-sulfanone]", "inhibition of growth at 300 ppm": "> 70"}, {"smiles": "CS(=O)(=NCc1cccc(-c2noc(C(F)(F)F)n2)c1)c1ccc(F)cc1", "note": "(centres unmarked) [Compound 145, (4-fluorophenyl)(methyl)((3-(5-(trifluoromethyl)-1,2,4-oxadiazol-3-yl)benzyl)imino)-λ^6-sulfanone]", "inhibition of growth at 300 ppm": "> 70"}, {"smiles": "CS(=O)(=NCc1cccc(-c2noc(C(F)(F)F)n2)c1)c1cc(F)ccc1Br", "note": "(centres unmarked) [Compound 146, (2-bromo-5-fluorophenyl)(methyl)((3-(5-(trifluoromethyl)-1,2,4-oxadiazol-3-yl)benzyl)imino)-λ^6-sulfanone]", "inhibition of growth at 300 ppm": "> 70"}, {"smiles": "CS(=O)(=NCc1cccc(-c2noc(C(F)(F)F)n2)c1)c1ccc(Br)cc1F", "note": "(centres unmarked) [Compound 147, (4-bromo-2-fluorophenyl)(methyl)((3-(5-(trifluoromethyl)-1,2,4-oxadiazol-3-yl)benzyl)imino)-λ^6-sulfanone]", "inhibition of growth at 300 ppm": "> 70"}, {"smiles": "O=S1(=NCc2cccc(-c3noc(C(F)(F)F)n3)c2)CCOCC1", "note": "[Compound 149, 4-((3-(5-(trifluoromethyl)-1,2,4-oxadiazol-3-yl)benzyl)imino)-1,4λ^6-oxathiane 4-oxide]", "inhibition of growth at 300 ppm": "> 70"}, {"smiles": "CC(C)S(=O)(=NCc1ccc(-c2noc(C(F)(F)F)n2)cc1)c1ccccc1", "note": "(centres unmarked) [Compound 151, isopropyl(phenyl)((4-(5-(trifluoromethyl)-1,2,4-oxadiazol-3-yl)benzyl)imino)-λ^6-sulfanone]", "inhibition of growth at 300 ppm": "> 70"}]}]}
